According to patent US6387947B1, “Antimicrobial cosmetic compositions” (E-L Management Corp., priority 1997, dated 2002):

What was measured:
Pseudomonas [1] = assay: microbial challenge of nonionic oil-in-water emulsion, pool 2; type: cell-based; conditions: 0.375% in emulsion
Enterics [2] = assay: microbial challenge of nonionic oil-in-water emulsion, pool 1; type: cell-based; conditions: 0.375% in emulsion
Enterics [3] = assay: as above; type: cell-based
Experimental: (§1) A nonionic oil-in-water emulsion is prepared containing 0.473% 3-furan carboxylic acid. The formulation is divided into five portions, each one getting an inoculation at day 0, and a reinoculation after three weeks, of one of the following microbial cultures: (1)Enterics; (2) Pseudomonas; (3)Staphylococcus; (4)Yeast; and (5)Mold. The concentration of microbes in each individual formulation is calculated on the day of the inoculation, and then again calculated on day 2, and at the end of one, two, three (pre-reinoculation) and four weeks, at a variety of pH values. These are also compared with formulations containing 2-furan carboxylic acid and an identical series of microbes, and an acid pH control emulsion without a furan carboxylic acid added. All numbers, other than those listed as “<10”, are log base 10; thus, for example, “6.6” is equivalent to the presence of […] bacteria. Entries of <10 indicate less than 10 colony forming units, the lowest level of detection.

[4] = system: lymphocyte adhesion to endothelial cells; assay: inhibition of lymphocyte adhesion to endothelial cells; type: cell-based, human
Experimental: Endothelial cells are grown to confluence and washed thoroughly with basal media prior to the experiment to remove all fetal calf serum. The test compounds are then added to the endothelial culture well and incubated for 2 hours. IL-1β is added to stimulated expression of adhesion molecules on the endothelial cells before lymphocytes are added. Lymphocytes are isolated from blood collected from adult human subjects and added to the endothelial culture wells. PHA is added to stimulate adhesion molecule expression in the lymphocytes and the cultures incubated overnight. After a brief washing procedure, cells are incubated with Rose Bengal, and the number of adherent cells assessed by measuring the absorbance at 570 nm.

Pseudomonas [5] = assay: microbial challenge of nonionic oil-in-water emulsion, pool 2; type: cell-based
Experimental: as §1

Yeast [6] = assay: microbial challenge of nonionic oil-in-water emulsion, pool 4; type: cell-based; conditions: 0.375% in emulsion
[7] = antiirritant effect against Balsam of Peru on ventral forearms of volunteers; type: in vivo, human; conditions: 0.1% in hydroalcohol 1:1, applied twenty minutes before Balsam of Peru; Minolta Chromameter; seven volunteers
Experimental: Seven volunteers with a history of skin sensitivity to Balsam of Peru are chosen for the study.
The test compounds are applied to the ventral forearms of panelists. The material is allowed to absorb for twenty minutes and then Balsam of Peru, an irritant is applied on the test sites. Skin irritation is measured in terms of increase in skin redness. The degree of redness is measured with a Minolta Chromameter and compared with the controls, the positive control being skin treated with Balsam of Peru alone, and the negative control being a skin site treated with 10% cola solution(a known antiirritant), and challenged like the test products.

Staphylococcus = assay: microbial challenge of nonionic oil-in-water emulsion, pool 3; type: cell-based; conditions: for concentration of microbes: 0.375% in emulsion
Experimental: The formulation is divided into five portions, each one getting an inoculation at day 0, and a reinoculation after three weeks, of one of the following microbial cultures: (1)Enterics; (2) Pseudomonas; (3)Staphylococcus; (4)Yeast; and (5)Mold. The concentration of microbes in each individual formulation is calculated on the day of the inoculation, and then again calculated on day 2, and at the end of one, two, three (pre-reinoculation) and four weeks, at a variety of pH values. These are also compared with formulations containing 2-furan carboxylic acid and an identical series of microbes, and an acid pH control emulsion without a furan carboxylic acid added. All numbers, other than those listed as “<10”, are log base 10; thus, for example, “6.6” is equivalent to the presence of […] bacteria. Entries of <10 indicate less than 10 colony forming units, the lowest level of detection.

Mold = assay: microbial challenge of nonionic oil-in-water emulsion, pool 5; type: cell-based; conditions: for concentration of microbes: 0.375% in emulsion
Experimental: as §1

mycobacteria = conditions: U.S. Pat. No. 5,387,605; cited from earlier work
Yeast [8] = assay: microbial challenge of nonionic oil-in-water emulsion, pool 4; type: cell-based; conditions: for concentration of microbes: 0.375% in emulsion
Experimental: as §1

[9] = system: PLA2 enzyme obtained from snake venom; conditions: assay concentrations 0.01, 0.1 and 1 mg/ml
Experimental: The enzyme reaction is accomplished in a cuvette containing […] of phosphate buffered saline. Fluorometric substrate NBD-C6-HPC is solubilized 1 mM in EtOH, and is diluted in the reaction mixture to yield a 10 μM final concentration. The assay is initiated with the addition of 0.001 units per μl of PLA2 enzyme obtained from snake venom. Enzyme activity is monitored either with or without the presence of potential inhibitors. […] Prior to enzyme addition, samples are measured fluorometrically at excitation 470 and emission 570 to determine background level of fluorescensce. Following enzyme addition, samples are monitored every 15 minutes over a 60 minute period.

O=C(O)c1ccco1 [2-furan carboxylic acid]
concentration of microbes (Pseudomonas [1]; pH 3.0, Week 1): <10 colony forming units | concentration of microbes (Pseudomonas [1]; pH 3.0, Week 3): <10 colony forming units | concentration of microbes (Pseudomonas [1]; pH 3.0, Week 4): <10 colony forming units | concentration of microbes (Pseudomonas [1]; pH 4.0, Day 2): <10 colony forming units | concentration of microbes (Pseudomonas [1]; pH 4.0, Week 3): <10 colony forming units | concentration of microbes (Pseudomonas [1]; pH 4.0, Week 4): <10 colony forming units | concentration of microbes (Pseudomonas [1]; pH 5.0, Day 2): >6 log base 10 | concentration of microbes (Pseudomonas [1]; pH 5.0, Week 2): <10 colony forming units | concentration of microbes (Pseudomonas [1]; pH 5.0, Week 3): <10 colony forming units | concentration of microbes (Enterics [2]; pH 3.0, Day 0): 6.6 log base 10 | concentration of microbes (Enterics [2]; pH 3.0, Week 1): <10 colony forming units | concentration of microbes (Enterics [2]; pH 3.0, Week 2): <10 colony forming units | concentration of microbes (Enterics [2]; pH 3.0, Week 3): <10 colony forming units | concentration of microbes (Enterics [2]; pH 3.0, Week 4): <10 colony forming units | concentration of microbes (Enterics [2]; pH 4.0, Day 0): 6.6 log base 10 | concentration of microbes (Enterics [2]; pH 4.0, Week 1): <10 colony forming units | concentration of microbes (Enterics [2]; pH 4.0, Week 4): <10 colony forming units | concentration of microbes (Enterics [2]; pH 5.0, Day 0): 6.6 log base 10 | concentration of microbes (Enterics [2]; pH 5.0, Day 2): >6 log base 10 | concentration of microbes (Enterics [2]; pH 5.0, Week 1): >6 log base 10 | concentration of microbes (Enterics [2]; pH 5.0, Week 3): <10 colony forming units | concentration of microbes (Enterics [2]; pH 5.0, Week 4): <10 colony forming units | antimicrobial activity against Enterics, in words (Enterics [3]): does exhibit inhibition | inhibition of adhesion of polymorphonuclear leukocytes (PMNs) to activated endothelial cells, in words [4]: ability to inhibit the adhesion | inhibition of lymphocyte adhesion, in words (absorbance at 570 nm, Rose Bengal) ([4]; concentrations of 0.5% and 1%, IL-1β and PHA stimulated): very potent inhibitors of lymphocyte adhesion | antimicrobial activity against Pseudomonas, in words (Pseudomonas [5]): does exhibit inhibition | concentration of microbes (Yeast [6]; pH 3.0, Week 2): <10 colony forming units | concentration of microbes (Yeast [6]; pH 4.0, Week 1): 3.7 log base 10 | concentration of microbes (Yeast [6]; pH 5.0, Week 2): >5.7 log base 10 | concentration of microbes (Yeast [6]; pH 5.0, Week 3): >5.7 log base 10 | effectiveness in preventing the onset of irritation (reduction of skin redness) [7]: 49% | antimicrobial activity against Staphylococcus, in words (Staphylococcus): does exhibit inhibition | concentration of microbes (Staphylococcus; pH 3.0, Day 0): 6.3 log base 10 | concentration of microbes (Staphylococcus; pH 3.0, Day 2): <10 colony forming units | concentration of microbes (Staphylococcus; pH 3.0, Week 1): <10 colony forming units | concentration of microbes (Staphylococcus; pH 3.0, Week 2): <10 colony forming units | concentration of microbes (Staphylococcus; pH 3.0, Week 3): <10 colony forming units | concentration of microbes (Staphylococcus; pH 3.0, Week 4): <10 colony forming units | concentration of microbes (Staphylococcus; pH 4.0, Day 0): 6.3 log base 10 | concentration of microbes (Staphylococcus; pH 4.0, Day 2): <10 colony forming units | concentration of microbes (Staphylococcus; pH 4.0, Week 1): <10 colony forming units | concentration of microbes (Staphylococcus; pH 4.0, Week 2): <10 colony forming units | concentration of microbes (Staphylococcus; pH 4.0, Week 3): <10 colony forming units | concentration of microbes (Staphylococcus; pH 4.0, Week 4): <10 colony forming units | concentration of microbes (Staphylococcus; pH 5.0, Day 0): 6.3 log base 10 | concentration of microbes (Staphylococcus; pH 5.0, Day 2): 2.9 log base 10 | concentration of microbes (Staphylococcus; pH 5.0, Week 1): <10 colony forming units | concentration of microbes (Staphylococcus; pH 5.0, Week 2): <10 colony forming units | concentration of microbes (Staphylococcus; pH 5.0, Week 3): <10 colony forming units | concentration of microbes (Staphylococcus; pH 5.0, Week 4): <10 colony forming units | antimicrobial activity against Mold, in words (Mold): very poor level of activity | concentration of microbes (Mold; pH 3.0, Day 0): 5.2 log base 10 | concentration of microbes (Mold; pH 3.0, Day 2): <10 colony forming units | concentration of microbes (Mold; pH 3.0, Week 1): <10 colony forming units | concentration of microbes (Mold; pH 3.0, Week 2): <10 colony forming units | concentration of microbes (Mold; pH 3.0, Week 3): <10 colony forming units | concentration of microbes (Mold; pH 3.0, Week 4): <10 colony forming units | concentration of microbes (Mold; pH 4.0, Day 0): 5.2 log base 10 | concentration of microbes (Mold; pH 4.0, Day 2): 1.6 log base 10 | concentration of microbes (Mold; pH 4.0, Week 1): <10 colony forming units | concentration of microbes (Mold; pH 4.0, Week 2): <10 colony forming units | concentration of microbes (Mold; pH 4.0, Week 3): <10 colony forming units | concentration of microbes (Mold; pH 4.0, Week 4): <10 colony forming units | concentration of microbes (Mold; pH 5.0, Day 0): 5.2 log base 10 | concentration of microbes (Mold; pH 5.0, Day 2): 5.2 log base 10 | concentration of microbes (Mold; pH 5.0, Week 1): 5.2 log base 10 | concentration of microbes (Mold; pH 5.0, Week 2): 5.2 log base 10 | concentration of microbes (Mold; pH 5.0, Week 3): 3.0 log base 10 | concentration of microbes (Mold; pH 5.0, Week 4): >5 log base 10 | antimicrobial activity against mycobacteria, in words (mycobacteria): particularly effective | antimicrobial activity against yeast, in words (Yeast [8]): very poor level of activity | concentration of microbes (Yeast [8]; pH 3.0, Day 0): 5.7 log base 10 | concentration of microbes (Yeast [8]; pH 3.0, Day 2): <10 colony forming units | concentration of microbes (Yeast [8]; pH 3.0, Week 1): <10 colony forming units | concentration of microbes (Yeast [8]; pH 3.0, Week 3): <10 colony forming units | concentration of microbes (Yeast [8]; pH 3.0, Week 4): <10 colony forming units | concentration of microbes (Yeast [8]; pH 4.0, Day 0): 5.7 log base 10 | concentration of microbes (Yeast [8]; pH 4.0, Day 2): 3.7 log base 10 | concentration of microbes (Yeast [8]; pH 4.0, Week 2): <10 colony forming units | concentration of microbes (Yeast [8]; pH 4.0, Week 3): <10 colony forming units | concentration of microbes (Yeast [8]; pH 4.0, Week 4): >5.7 log base 10 | concentration of microbes (Yeast [8]; pH 5.0, Day 0): 5.7 log base 10 | concentration of microbes (Yeast [8]; pH 5.0, Day 2): >5.7 log base 10 | concentration of microbes (Yeast [8]; pH 5.0, Week 1): >5.7 log base 10 | concentration of microbes (Yeast [8]; pH 5.0, Week 4): >5.7 log base 10 | PLA2 inhibition, in words [9]: capable of inhibiting the activity | EC-50 of PLA2 inhibition ([9]; calculated from linear fit): 0.5 mg/mL
